Results published in ChEMBL document CHEMBL1155889, “Structure-activity relationship studies on vitamin D lactam derivatives as vitamin D receptor antagonist” (Bioorg Med Chem Lett, 2008).
The source made the active and inactive calls. No cut-off for these calls is given here.

Assays:
[1] = target: T1, Vitamin D3 receptor (Gallus gallus) (UniProt O42392); experiment: Displacement of [3H]1,25-(OH)2-D3 from chick intestinal VDR relative to 1,25-(OH)2-D3
T1 sequence (whole entry): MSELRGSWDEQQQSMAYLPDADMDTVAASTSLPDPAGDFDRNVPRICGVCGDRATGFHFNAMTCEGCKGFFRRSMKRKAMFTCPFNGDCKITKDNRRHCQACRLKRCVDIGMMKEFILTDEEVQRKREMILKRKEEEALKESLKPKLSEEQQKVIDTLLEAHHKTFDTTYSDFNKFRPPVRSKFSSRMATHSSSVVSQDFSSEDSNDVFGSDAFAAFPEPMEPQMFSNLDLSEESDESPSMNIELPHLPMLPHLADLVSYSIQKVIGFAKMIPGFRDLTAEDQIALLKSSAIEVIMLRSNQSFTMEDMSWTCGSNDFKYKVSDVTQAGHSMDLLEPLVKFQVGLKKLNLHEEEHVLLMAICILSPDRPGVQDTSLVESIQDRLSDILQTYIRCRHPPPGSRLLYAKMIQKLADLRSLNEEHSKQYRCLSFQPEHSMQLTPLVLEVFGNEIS

[2] = target: T2, Vitamin D3 receptor (Homo sapiens) (UniProt P11473); experiment: Antagonist activity at VDR in human HL60 cells assessed as effect on 1,25-(OH)2-D3-induced cell differentiation at 1 uM by NBT assay; type: functional, cell-based; conditions: HL-60
T2 sequence (whole entry): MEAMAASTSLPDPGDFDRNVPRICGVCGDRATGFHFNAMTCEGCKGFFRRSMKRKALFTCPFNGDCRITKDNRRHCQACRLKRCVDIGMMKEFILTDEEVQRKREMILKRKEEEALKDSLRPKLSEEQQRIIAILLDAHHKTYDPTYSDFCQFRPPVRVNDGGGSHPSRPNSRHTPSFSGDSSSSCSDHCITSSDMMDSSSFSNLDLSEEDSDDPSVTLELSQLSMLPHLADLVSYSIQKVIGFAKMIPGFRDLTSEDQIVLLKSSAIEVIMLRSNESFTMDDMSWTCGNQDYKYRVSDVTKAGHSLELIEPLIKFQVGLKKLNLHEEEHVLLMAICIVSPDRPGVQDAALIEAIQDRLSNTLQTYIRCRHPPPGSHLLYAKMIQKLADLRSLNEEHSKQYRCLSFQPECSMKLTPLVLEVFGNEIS

[3] = target: T2, Vitamin D3 receptor (Homo sapiens); experiment: Antagonist activity at VDR in human HL60 cells assessed as effect on 1,25-(OH)2-D3-induced cell differentiation at 3 uM by NBT assay; type: functional, cell-based; conditions: HL-60
[4] = target: T2, Vitamin D3 receptor (Homo sapiens); experiment: Agonist activity at human VDR expressed in monkey COS7 cells at <10 uM by luciferase reporter gene assay; type: functional, cell-based; conditions: COS-7

| SMILES | relative binding affinity (RBA) [1] | Activity [2] | Activity [3] | Activity [4] |
| --- | --- | --- | --- | --- |
| C=C1/C(=C\C=C2/CCC[C@]3(C)[C@@H]([C@H](C)C[C@@H]4C[C@](C)(O)C(=O)N4CCCc4cc(C(F)(F)F)cc(C(F)(F)F)c4)CC[C@@H]23)C[C@@H](O)C[C@@H]1O | < 5400 | inactive | – | – |
| C=C1/C(=C\C=C2/CCC[C@]3(C)[C@@H]([C@H](C)C[C@H]4C[C@@](C)(O)C(=O)N4CCc4cc(OC)cc(OC)c4)CC[C@@H]23)C[C@@H](O)C[C@@H]1O | < 1520 | inactive | – | – |
| C=C1/C(=C\C=C2/CCC[C@]3(C)[C@@H]([C@H](C)C[C@@H]4C[C@@](C)(O)C(=O)N4CCc4cc(OC)cc(OC)c4)CC[C@@H]23)C[C@@H](O)C[C@@H]1O | 284 | inactive | – | – |
| C=C1/C(=C\C=C2/CCC[C@]3(C)[C@@H]([C@H](C)C[C@H]4C[C@](C)(O)C(=O)N4Cc4cc(C(F)(F)F)cc(C(F)(F)F)c4)CC[C@@H]23)C[C@@H](O)C[C@@H]1O | 138 | – | inactive | – |
| C=C1/C(=C\C=C2/CCC[C@]3(C)[C@@H]([C@H](C)C[C@@H]4C[C@](C)(O)C(=O)N4Cc4cc(C(F)(F)F)cc(C(F)(F)F)c4)CC[C@@H]23)C[C@@H](O)C[C@@H]1O | < 1520 | – | inactive | – |
| C=C1/C(=C\C=C2/CCC[C@]3(C)[C@@H]([C@H](C)C[C@@H]4C[C@@](C)(O)C(=O)N4Cc4cc(C(F)(F)F)cc(C(F)(F)F)c4)CC[C@@H]23)C[C@@H](O)C[C@@H]1O | < 1520 | – | inactive | – |
| C=C1/C(=C\C=C2/CCC[C@]3(C)[C@@H]([C@H](C)C[C@H]4C[C@](C)(O)C(=O)N4Cc4cc(O)cc(O)c4)CC[C@@H]23)C[C@@H](O)C[C@@H]1O | 9.6 | inactive | – | inactive |
| C=C1/C(=C\C=C2/CCC[C@]3(C)[C@@H]([C@H](C)C[C@@H]4C[C@](C)(O)C(=O)N4CCc4cc(OC)cc(OC)c4)CC[C@@H]23)C[C@@H](O)C[C@@H]1O | < 1520 | inactive | – | – |
| C=C1/C(=C\C=C2/CCC[C@]3(C)[C@@H]([C@H](C)C[C@H]4C[C@](C)(O)C(=O)N4Cc4cc(OCCCC)cc(OCCCC)c4)CC[C@@H]23)C[C@@H](O)C[C@@H]1O | 18.2 | – | – | – |
| C=C1/C(=C\C=C2/CCC[C@]3(C)[C@@H]([C@H](C)C[C@H]4C[C@](C)(O)C(=O)N4CCCc4cc(OC)cc(OC)c4)CC[C@@H]23)C[C@@H](O)C[C@@H]1O | 57 | – | – | – |
| C=C1/C(=C\C=C2/CCC[C@]3(C)[C@@H]([C@H](C)C[C@H]4C[C@@](C)(O)C(=O)N4Cc4cc(OC)cc(OC)c4)CC[C@@H]23)C[C@@H](O)C[C@@H]1O | 131 | – | – | – |
| C=C1/C(=C\C=C2/CCC[C@]3(C)[C@@H]([C@H](C)C[C@@H]4C[C@@](C)(O)C(=O)N4CCCc4cc(OC)cc(OC)c4)CC[C@@H]23)C[C@@H](O)C[C@@H]1O | < 1520 | – | inactive | – |
| C=C1/C(=C\C=C2/CCC[C@]3(C)[C@@H]([C@H](C)C[C@H]4C[C@@](C)(O)C(=O)N4CCCc4cc(C(F)(F)F)cc(C(F)(F)F)c4)CC[C@@H]23)C[C@@H](O)C[C@@H]1O | < 5400 | inactive | – | – |
| C=C1/C(=C\C=C2/CCC[C@]3(C)[C@@H]([C@H](C)C[C@H]4C[C@](C)(O)C(=O)N4CCCc4cc(C(F)(F)F)cc(C(F)(F)F)c4)CC[C@@H]23)C[C@@H](O)C[C@@H]1O | 181 | inactive | – | – |
| C=C1/C(=C\C=C2/CCC[C@]3(C)[C@@H]([C@H](C)C[C@@H]4C[C@](C)(O)C(=O)N4Cc4cc(OC)cc(OC)c4)CC[C@@H]23)C[C@@H](O)C[C@@H]1O | 60 | – | – | – |
| C=C1/C(=C\C=C2/CCC[C@]3(C)[C@@H]([C@H](C)C[C@@H]4C[C@@](C)(O)C(=O)N4Cc4cc(OC)cc(OC)c4)CC[C@@H]23)C[C@@H](O)C[C@@H]1O | 185 | – | – | – |
| C=C1/C(=C\C=C2/CCC[C@]3(C)[C@@H]([C@H](C)C[C@@H]4C[C@@](C)(O)C(=O)N4CCc4cc(C(F)(F)F)cc(C(F)(F)F)c4)CC[C@@H]23)C[C@@H](O)C[C@@H]1O | 236 | – | inactive | – |
| C=C1/C(=C\C=C2/CCC[C@]3(C)[C@@H]([C@H](C)C[C@@H]4C[C@](C)(O)C(=O)N4CCCc4cc(OC)cc(OC)c4)CC[C@@H]23)C[C@@H](O)C[C@@H]1O | < 1520 | – | inactive | – |
| C=C1/C(=C\C=C2/CCC[C@]3(C)[C@@H]([C@H](C)C[C@@H]4C[C@@](C)(O)C(=O)N4CCCc4cc(C(F)(F)F)cc(C(F)(F)F)c4)CC[C@@H]23)C[C@@H](O)C[C@@H]1O | < 5400 | inactive | – | – |
| C=C1/C(=C\C=C2/CCC[C@]3(C)[C@@H]([C@H](C)C[C@H]4C[C@](C)(O)C(=O)N4Cc4cc(OC)cc(OC)c4)CC[C@@H]23)C[C@@H](O)C[C@@H]1O | 1.9 | – | – | – |
| C=C1/C(=C\C=C2/CCC[C@]3(C)[C@@H]([C@H](C)C[C@@H]4C[C@](C)(O)C(=O)N4CCc4cc(C(F)(F)F)cc(C(F)(F)F)c4)CC[C@@H]23)C[C@@H](O)C[C@@H]1O | 757 | – | inactive | – |
| C=C1/C(=C\C=C2/CCC[C@]3(C)[C@@H]([C@H](C)C[C@H]4C[C@@](C)(O)C(=O)N4Cc4cc(C(F)(F)F)cc(C(F)(F)F)c4)CC[C@@H]23)C[C@@H](O)C[C@@H]1O | < 1520 | – | inactive | – |
| C=C1/C(=C\C=C2/CCC[C@]3(C)[C@@H]([C@H](C)C[C@H]4C[C@](C)(O)C(=O)N4CCc4cc(C(F)(F)F)cc(C(F)(F)F)c4)CC[C@@H]23)C[C@@H](O)C[C@@H]1O | 42 | – | inactive | – |
| C=C1/C(=C\C=C2/CCC[C@]3(C)[C@@H]([C@H](C)C[C@H]4C[C@@](C)(O)C(=O)N4CCc4cc(C(F)(F)F)cc(C(F)(F)F)c4)CC[C@@H]23)C[C@@H](O)C[C@@H]1O | 1180 | – | inactive | – |
| C=C1/C(=C\C=C2/CCC[C@]3(C)[C@@H]([C@H](C)C[C@H]4C[C@](C)(O)C(=O)N4CCc4cc(OC)cc(OC)c4)CC[C@@H]23)C[C@@H](O)C[C@@H]1O | 12 | – | – | – |
| C=C1/C(=C\C=C2/CCC[C@]3(C)[C@@H]([C@H](C)C[C@H]4C[C@](C)(O)C(=O)N4Cc4cc(OCC)cc(OCC)c4)CC[C@@H]23)C[C@@H](O)C[C@@H]1O | 3.5 | – | – | – |
| C=C1/C(=C\C=C2/CCC[C@]3(C)[C@@H]([C@H](C)C[C@H]4C[C@](C)(O)C(=O)N4Cc4cc(OCCC)cc(OCCC)c4)CC[C@@H]23)C[C@@H](O)C[C@@H]1O | 11.9 | – | – | – |
| C=C1/C(=C\C=C2/CCC[C@]3(C)[C@@H]([C@H](C)C[C@H]4C[C@](C)(O)C(=O)N4Cc4ccccc4)CC[C@@H]23)C[C@@H](O)C[C@@H]1O | 36.4 | – | – | – |
| C=C1/C(=C\C=C2/CCC[C@]3(C)[C@@H]([C@H](C)C[C@H]4C[C@](C)(O)C(=O)N4CCc4ccccc4)CC[C@@H]23)C[C@@H](O)C[C@@H]1O | 12.5 | – | – | – |
| C=C1/C(=C\C=C2/CCC[C@]3(C)[C@@H]([C@H](C)C[C@H]4C[C@@](C)(O)C(=O)N4CCCc4cc(OC)cc(OC)c4)CC[C@@H]23)C[C@@H](O)C[C@@H]1O | < 1520 | – | inactive | – |
